PubChem BioAssay AID1963850 (Molecular Pharmacology Branch, DTP, NCI, 2024)

Test system: 192522-019-R-J2-PDC complex tumor spheroid viability
Test: Anticancer human tumor 192522-019-R-J2-PDC patient-derived colon adenocarcinoma cell line growth inhibition [POLQ]
Conditions: for IC50: curve of first compound; for viability, T/C: stronger effect = lower value
Summary of the method: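 Growth inhibition in 3D: complex spheroids (tumor PDC, HUVEC, MSC) treated with POLQ inhibitor combinations; where Cmax unknown, highest tested concentration 10 microM, except SN-38 at 1 microM.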

[1] = second compound 0.0316 µM, first compound 0.0316 µM
[2] = second compound 0.0316 µM, first compound 0.1 µM
[3] = second compound 0.0316 µM, first compound 0.316 µM
[4] = second compound 0.0316 µM, first compound 1 µM
[5] = second compound 0.0316 µM, first compound 3.16 µM
[6] = second compound 0.0316 µM, first compound 10 µM
[7] = second compound 0.1 µM, first compound 0.0316 µM
[8] = second compound 0.1 µM, first compound 0.1 µM
[9] = second compound 0.1 µM, first compound 0.316 µM
[10] = second compound 0.1 µM, first compound 1 µM
[11] = second compound 0.1 µM, first compound 3.16 µM
[12] = second compound 0.1 µM, first compound 10 µM
[13] = second compound 0.316 µM, first compound 0.0316 µM
[14] = second compound 0.316 µM, first compound 0.1 µM
[15] = second compound 0.316 µM, first compound 0.316 µM
[16] = second compound 0.316 µM, first compound 1 µM
[17] = second compound 0.316 µM, first compound 3.16 µM
[18] = second compound 0.316 µM, first compound 10 µM
[19] = second compound 1 µM, first compound 0.0316 µM
[20] = second compound 1 µM, first compound 0.1 µM
[21] = second compound 1 µM, first compound 0.316 µM
[22] = second compound 1 µM, first compound 1 µM
[23] = second compound 1 µM, first compound 3.16 µM
[24] = second compound 1 µM, first compound 10 µM
[25] = second compound 3.16 µM, first compound 0.0316 µM
[26] = second compound 3.16 µM, first compound 0.1 µM
[27] = second compound 3.16 µM, first compound 0.316 µM
[28] = second compound 3.16 µM, first compound 1 µM
[29] = second compound 3.16 µM, first compound 3.16 µM
[30] = second compound 3.16 µM, first compound 10 µM
[31] = second compound 10 µM, first compound 0.0316 µM
[32] = second compound 10 µM, first compound 0.1 µM
[33] = second compound 10 µM, first compound 0.316 µM
[34] = second compound 10 µM, first compound 1 µM
[35] = second compound 10 µM, first compound 3.16 µM
[36] = second compound 10 µM, first compound 10 µM
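Further: spheroids exposed to drugs for seven days before reading.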
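Wherever viability, T/C is given: 100% = DMSO vehicle control viability in luminescence.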

`CC1COCCN1c1cc(-c2ccnn2C)c2ccnc(-c3ccn[nH]3)c2n1` (stereo unspecified) + Nc1ccc(C#CCN(C(=O)Cc2ncc(C(F)(F)F)cc2C(F)(F)F)c2ccc(F)cc2)nn1 gave an IC50 (second compound 0.0316 µM) of 592 nM, an IC50 (second compound 0.1 µM) of 444 nM and an IC50 (second compound 0.316 µM) of 508 nM. For the same molecule, the IC50 (second compound 1 µM) was 651 nM, the IC50 (second compound 3.16 µM) was 570 nM and the IC50 (second compound 10 µM) was 895 nM. It also gave a viability, T/C [1] of 104%, a viability, T/C [2] of 83.7% and a viability, T/C [3] of 59.6%. It also gave a viability, T/C [4] of 37%, a viability, T/C [5] of 44% and a viability, T/C [6] of 46.1%. It also gave a viability, T/C [7] of 101%, a viability, T/C [8] of 86.1% and a viability, T/C [9] of 54.1%. For the same molecule, the viability, T/C [10] was 38.7%, the viability, T/C [11] was 40.2% and the viability, T/C [12] was 46.2%. For the same molecule, the viability, T/C [13] was 96.8%, the viability, T/C [14] was 93.5% and the viability, T/C [15] was 53.6%. For the same molecule, the viability, T/C [16] was 35.5%, the viability, T/C [17] was 45.6% and the viability, T/C [18] was 54.2%. The viability, T/C [19] was 95.8%, the viability, T/C [20] was 84.5% and the viability, T/C [21] was 61.4%. For the same molecule, the viability, T/C [22] was 40.2%, the viability, T/C [23] was 41.2% and the viability, T/C [24] was 45%. For the same molecule, the viability, T/C [25] was 100%, the viability, T/C [26] was 81.9% and the viability, T/C [27] was 59.6%. It also gave a viability, T/C [28] of 36.5%, a viability, T/C [29] of 42% and a viability, T/C [30] of 47.1%. For the same molecule, the viability, T/C [31] was 97.8%, the viability, T/C [32] was 85.9% and the viability, T/C [33] was 63.9%. It also gave a viability, T/C [34] of 43.5%, a viability, T/C [35] of 46.3% and a viability, T/C [36] of 50.8%.

For `O=C(Nc1ccc(O)c(NS(=O)(=O)c2ccc(F)cc2)c1)c1ccc(-c2ccccc2)cc1` + Nc1ccc(C#CCN(C(=O)Cc2ncc(C(F)(F)F)cc2C(F)(F)F)c2ccc(F)cc2)nn1, the IC50 (second compound 0.0316 µM) was > 10000 nM, the IC50 (second compound 0.1 µM) was > 10000 nM and the IC50 (second compound 0.316 µM) was > 10000 nM. The IC50 (second compound 1 µM) was > 10000 nM, the IC50 (second compound 3.16 µM) was > 10000 nM and the IC50 (second compound 10 µM) was > 10000 nM. For the same molecule, the viability, T/C [1] was 104%, the viability, T/C [2] was 101% and the viability, T/C [3] was 94.6%. For the same molecule, the viability, T/C [4] was 99.2%, the viability, T/C [5] was 104% and the viability, T/C [6] was 98.3%. For the same molecule, the viability, T/C [7] was 109%, the viability, T/C [8] was 103% and the viability, T/C [9] was 94%. It also gave a viability, T/C [10] of 87.9%, a viability, T/C [11] of 102% and a viability, T/C [12] of 103%. It also gave a viability, T/C [13] of 97.2%, a viability, T/C [14] of 101% and a viability, T/C [15] of 94.9%. It also gave a viability, T/C [16] of 105%, a viability, T/C [17] of 105% and a viability, T/C [18] of 100%. For the same molecule, the viability, T/C [19] was 110%, the viability, T/C [20] was 98.2% and the viability, T/C [21] was 97.5%. The viability, T/C [22] was 91.6%, the viability, T/C [23] was 101% and the viability, T/C [24] was 102%. The viability, T/C [25] was 99.4%, the viability, T/C [26] was 106% and the viability, T/C [27] was 102%. For the same molecule, the viability, T/C [28] was 110%, the viability, T/C [29] was 107% and the viability, T/C [30] was 111%. For the same molecule, the viability, T/C [31] was 103%, the viability, T/C [32] was 103% and the viability, T/C [33] was 109%. The viability, T/C [34] was 107%, the viability, T/C [35] was 111% and the viability, T/C [36] was 103%.

`CC[C@@]1(O)C(=O)OCc2c1cc1n(c2=O)Cc2cc3c(CN(C)C)c(O)ccc3nc2-1` + Nc1ccc(C#CCN(C(=O)Cc2ncc(C(F)(F)F)cc2C(F)(F)F)c2ccc(F)cc2)nn1 was tested, and the IC50 (second compound 0.0316 µM) was > 100 nM, the IC50 (second compound 0.1 µM) was > 100 nM and the IC50 (second compound 0.316 µM) was > 100 nM. For the same molecule, the IC50 (second compound 1 µM) was > 100 nM, the IC50 (second compound 3.16 µM) was > 100 nM and the IC50 (second compound 10 µM) was > 100 nM. The viability, T/C (second compound 0.0316 µM, first compound 0.000316 µM) was 96.2%, the viability, T/C (second compound 0.0316 µM, first compound 0.001 µM) was 103% and the viability, T/C (second compound 0.0316 µM, first compound 0.00316 µM) was 97.1%. For the same molecule, the viability, T/C (second compound 0.0316 µM, first compound 0.01 µM) was 108%, the viability, T/C [1] was 98.5% and the viability, T/C [2] was 77.3%. It also gave a viability, T/C (second compound 0.1 µM, first compound 0.000316 µM) of 111%, a viability, T/C (second compound 0.1 µM, first compound 0.001 µM) of 105% and a viability, T/C (second compound 0.1 µM, first compound 0.00316 µM) of 103%. It also gave a viability, T/C (second compound 0.1 µM, first compound 0.01 µM) of 99%, a viability, T/C [7] of 107% and a viability, T/C [8] of 79.1%. The viability, T/C (second compound 0.316 µM, first compound 0.000316 µM) was 107%, the viability, T/C (second compound 0.316 µM, first compound 0.001 µM) was 109% and the viability, T/C (second compound 0.316 µM, first compound 0.00316 µM) was 97.8%. For the same molecule, the viability, T/C (second compound 0.316 µM, first compound 0.01 µM) was 103%, the viability, T/C [13] was 95.7% and the viability, T/C [14] was 77.7%. For the same molecule, the viability, T/C (second compound 1 µM, first compound 0.000316 µM) was 113%, the viability, T/C (second compound 1 µM, first compound 0.001 µM) was 104% and the viability, T/C (second compound 1 µM, first compound 0.00316 µM) was 106%. For the same molecule, the viability, T/C (second compound 1 µM, first compound 0.01 µM) was 109%, the viability, T/C [19] was 97.8% and the viability, T/C [20] was 78.2%. It also gave a viability, T/C (second compound 3.16 µM, first compound 0.000316 µM) of 99.6%, a viability, T/C (second compound 3.16 µM, first compound 0.001 µM) of 99.9% and a viability, T/C (second compound 3.16 µM, first compound 0.00316 µM) of 103%. For the same molecule, the viability, T/C (second compound 3.16 µM, first compound 0.01 µM) was 99.3%, the viability, T/C [25] was 97.5% and the viability, T/C [26] was 84.8%. It also gave a viability, T/C (second compound 10 µM, first compound 0.000316 µM) of 106%, a viability, T/C (second compound 10 µM, first compound 0.001 µM) of 94.7% and a viability, T/C (second compound 10 µM, first compound 0.00316 µM) of 101%. The viability, T/C (second compound 10 µM, first compound 0.01 µM) was 95.1%, the viability, T/C [31] was 92.3% and the viability, T/C [32] was 87%.
